{
  "source": "patent US20220331458A1",
  "about": "“AGENTS FOR CLEAVING LABELS FROM BIOMOLECULES IN VIVO” (TAGWORKS PHARMACEUTICALS B.V., priority 2019, published 2022)",
  "key": {"[1]": {"test_system": "radiolabeled mAb-conjugates", "test": "In vitro Label release from radiolabeled mAb-TCO-chelate conjugates incubated with Cleaving Agents (SEC)", "conditions": "37°C, 15-24 h", "description": "Briefly, mAb solutions in PBS (4 mg/mL final concentration) were added with 15-20 eq of the NHS-derivative (dissolved at 10 mg/mL in DMSO) and the pH was adjusted to 9 with 1M sodium carbonate. The reaction mixtures were incubated at rt in the dark for 2 h then the products were purified by dialysis (20 kDa MW cut-off membranes) in chelex-treated 0.25M NH4OAc pH 5.5.\nAfter 15-24 h incubation the mixtures were analyzed by SEC and the amount of released Label was quantified from the radioactivity elution profile."}, "[2]": {"test": "Radioactivity in blood and tumors stated jointly for LS174T and BT-474 tumor-bearing mice (^111In-trastuzumab-1.8, 2.10)", "format": "in vivo", "conditions": "^111In-trastuzumab-1.8 followed by 2.10 48 h post-injection", "description": "Female Balb/C mice were injected ca 1 million LS174T colon carcinoma cells or 10 million BT-474 breast cancer cells s.c. in the flank. […] Control groups were euthanized 72 h post-mAb injection."}, "[3]": {"test": "^111In biodistribution in normal mice after ^111In-trastuzumab-1.8 followed by 2.10 or vehicle", "format": "in vivo"}, "[4]": {"set-up": "species or system mice", "conditions": "female, Balb/C nude, mouse, in vivo", "description": "Blood samples were withdrawn 5 min before and at various times after Cleaving Agent administration and the radioactivity was measured in a gamma-counter."}, "[5]": {"conditions": "Label release from TCO derivative 1.8 on trastuzumab, ^111In, 50% mouse plasma in PBS"}, "[6]": {"conditions": "^111In-trastuzumab-1.8 followed by 2.10 1 h post-mAb, euthanized 24 h later, SD, n = 4"}, "[7]": {"conditions": "^111In-trastuzumab-1.8 followed by 2.10 24 h post-mAb, euthanized 24 h later, SD, n = 4"}},
  "note": "Marks after values point to notes of the source that are not given here.",
  "data": [
    {"smiles": "O=C(CCCC(=O)Nc1cnccc1-c1nnc(-c2ccncc2NC(=O)CCCC(=O)NCCOCCOCCOCCOCCOCCOCCOCCOCCOCCO)nn1)NCCOCCOCCOCCOCCOCCOCCOCCOCCOCCO", "note": "[Compound 2.10, N^1,N^1′-(4,4′-(1,2,4,5-Tetrazine-3,6-diyl)bis(pyridine-4,3-diyl))bis(N^5-(29-hydroxy-3,6,9,12,15,18,21,24,27-nonaoxanonacosyl)glutaramide)]", "values": [
      {"measurement": "release (%)", "setting": "[1]; Label release from TCO derivative 1.14 on CC49, ^89Zr, PBS", "value": 45.2, "unit": "%"},
      {"measurement": "release (%)", "setting": "[1]; Label release from TCO derivative 1.15 on CC49, ^89Zr, PBS", "value": 50.0, "unit": "%"},
      {"measurement": "release (%)", "setting": "[1]; Label release from TCO derivative 1.17 on CC49, ^89Zr, PBS", "value": 50.0, "unit": "%"},
      {"measurement": "release (%)", "setting": "[1]; Label release from TCO derivative 1.2 on trastuzumab, ^111In, 50% mouse plasma in PBS", "value": 52.2, "unit": "%"},
      {"measurement": "release (%)", "setting": "[1]; Label release from TCO derivative 1.2 on trastuzumab, ^111In, PBS", "value": 53.4, "unit": "%"},
      {"measurement": "release (%)", "setting": "[1]; Label release from TCO derivative 1.4 on trastuzumab, ^111In, PBS", "value": 57.9, "unit": "%"},
      {"measurement": "release (%)", "setting": "[1]; Label release from TCO derivative 1.8 on CC49, ^111In, PBS", "value": 79.9, "unit": "%"},
      {"measurement": "release (%)", "setting": "[1]; Label release from TCO derivative 1.8 on cetuximab, ^111In, PBS", "value": 84.9, "unit": "%"},
      {"measurement": "release (%)", "setting": "[1]; Label release from TCO derivative 1.8 on girentuximab, ^111In, PBS", "value": 83.6, "unit": "%"},
      {"measurement": "release (%)", "setting": "[1]; Label release from TCO derivative 1.8 on rituximab, ^111In, PBS", "value": 82.5, "unit": "%"},
      {"measurement": "release (%)", "setting": "[1]; [5]", "value": "82.4, 82.4^a %"},
      {"measurement": "release (%)", "setting": "[1]; Label release from TCO derivative 1.8 on trastuzumab, ^111In, PBS", "value": "82.4, 82.4^a %"},
      {"measurement": "release (%)", "setting": "[1]; Label release from TCO derivative 1.8 on trastuzumab, ^177Lu, PBS", "value": 81.2, "unit": "%"},
      {"measurement": "radioactivity uptake in tumors versus control mice", "setting": "[2]; euthanized 24 h later", "value": "somewhat lower"},
      {"measurement": "radioactivity in blood", "setting": "[2]; euthanized 24 h later (LS174T or BT-474)", "value": "2-3 % ID/g"},
      {"measurement": "reduction in blood radioactivity with respect to control mice", "setting": "[3]; ^111In-trastuzumab-1.8 (ca. 0.5 mg/kg) followed by 2.10 (ca. 33.5 μmol/kg) either 1 h or 24 h post-mAb, 24 h after Cleaving Agent", "value": "ca. 70%"},
      {"measurement": "^111In biodistribution, Blood", "setting": "[3]; [6]", "value": "3.61 ± 0.44", "unit": "% injected dose per gram"},
      {"measurement": "^111In biodistribution, Bone", "setting": "[3]; [6]", "value": "0.44 ± 0.03", "unit": "% injected dose per gram"},
      {"measurement": "^111In biodistribution, Brain", "setting": "[3]; [6]", "value": "0.13 ± 0.08", "unit": "% injected dose per gram"},
      {"measurement": "^111In biodistribution, Heart", "setting": "[3]; [6]", "value": "0.87 ± 0.10", "unit": "% injected dose per gram"},
      {"measurement": "^111In biodistribution, Kidney L", "setting": "[3]; [6]", "value": "5.39 ± 0.84", "unit": "% injected dose per gram"},
      {"measurement": "^111In biodistribution, Lg. intestine", "setting": "[3]; [6]", "value": "0.34 ± 0.07", "unit": "% injected dose per organ"},
      {"measurement": "^111In biodistribution, Liver", "setting": "[3]; [6]", "value": "3.35 ± 0.10", "unit": "% injected dose per gram"},
      {"measurement": "^111In biodistribution, Lung", "setting": "[3]; [6]", "value": "1.94 ± 0.43", "unit": "% injected dose per gram"},
      {"measurement": "^111In biodistribution, Muscle", "setting": "[3]; [6]", "value": "0.27 ± 0.02", "unit": "% injected dose per gram"},
      {"measurement": "^111In biodistribution, Sm. Intestine", "setting": "[3]; [6]", "value": "0.61 ± 0.04", "unit": "% injected dose per organ"},
      {"measurement": "^111In biodistribution, Spleen", "setting": "[3]; [6]", "value": "1.19 ± 0.16", "unit": "% injected dose per gram"},
      {"measurement": "^111In biodistribution, Blood", "setting": "[3]; [7]", "value": "2.91 ± 0.53", "unit": "% injected dose per gram"},
      {"measurement": "^111In biodistribution, Bone", "setting": "[3]; [7]", "value": "0.65 ± 0.03", "unit": "% injected dose per gram"},
      {"measurement": "^111In biodistribution, Brain", "setting": "[3]; [7]", "value": "0.11 ± 0.02", "unit": "% injected dose per gram"},
      {"measurement": "^111In biodistribution, Heart", "setting": "[3]; [7]", "value": "0.93 ± 0.09", "unit": "% injected dose per gram"},
      {"measurement": "^111In biodistribution, Kidney L", "setting": "[3]; [7]", "value": "4.75 ± 0.45", "unit": "% injected dose per gram"},
      {"measurement": "^111In biodistribution, Lg. intestine", "setting": "[3]; [7]", "value": "0.56 ± 0.14", "unit": "% injected dose per organ"},
      {"measurement": "^111In biodistribution, Liver", "setting": "[3]; [7]", "value": "4.68 ± 1.11", "unit": "% injected dose per gram"},
      {"measurement": "^111In biodistribution, Muscle", "setting": "[3]; [7]", "value": "0.29 ± 0.05", "unit": "% injected dose per gram"},
      {"measurement": "^111In biodistribution, Sm. Intestine", "setting": "[3]; [7]", "value": "1.04 ± 0.21", "unit": "% injected dose per organ"},
      {"measurement": "^111In biodistribution, Spleen", "setting": "[3]; [7]", "value": "1.89 ± 0.17", "unit": "% injected dose per gram"}
    ]},
    {"smiles": "O=C(O)CCCC(=O)Nc1cccnc1-c1nnc(-c2ncccc2NC(=O)CCCC(=O)O)nn1", "note": "[Compound 2.7, 5,5′-((2,2′-(1,2,4,5-Tetrazine-3,6-diyl)bis(pyridine-3,2-diyl))bis(azanediyl))bis(5-oxopentanoic acid)]", "values": [
      {"measurement": "release (%)", "setting": "[1]; [5]", "value": "55.3^a %"},
      {"measurement": "decrease of radioactivity circulating in blood", "setting": "[4]", "value": "ca. 30%"}
    ]}
  ]
}
